Data on three molecules can be found in US20100129370A1, “Trefoil Factors and Methods of Treating Proliferation Disorders Using Same” (priority 2004, published 2010).

What all share (format): cell-based, human
The subject of one assay is MCF-TFF3 cells. The assay is described as follows: Soft agar colony formation in estrogen-depleted media with estrogen added. Particulars: estrogen added to estrogen-depleted media, MCF-TFF3, FIG. 10B. The procedure: (§1) MCF7-VECTOR and MCF7-TFF3 cells were cultured in phenol red free RPMI 1640 media with 10% dextran coated charcoal stripped fetal bovine serum.
The test system of the next assay is TFF3 promoter. Kind of assay: TFF3 promoter activity in MCF-7 cells treated with E2 or TAM. The following applies: 24 hours treatment, FIG. 7B, p<0.05. The procedure:
(§2) It was of interest to determine if the expression of TFF3 is related to estrogen receptor status. MCF7 cells were cultured in phenol red free RPMI 1640 containing 10% dextran coated charcoal stripped fetal bovine serum in a 6 well plate for 24 hours. Then the cells were changed to treatment media containing 10 nM E2 or 1 μM TAM and cultured for 24 hours in the same. Untreated cells cultured in serum free media acted as controls.

The test system of a further assay is TFF1. The assay is described as follows: TFF1 transcript levels (RT-PCR) in MCF7 cells treated with E2 or tamoxifen. The following applies: 10 nM E2 or 1 μM TAM, 24 hours, FIG. 9A. The procedure: (§3) MCF7 cells produce endogenous levels of TFF1. MCF7 cells were cultured in phenol red free RPMI 1640 containing 10% dextran coated charcoal stripped fetal bovine serum in a 6 well plate for 24 hours. Then the cells were changed to treatment media containing 10 nM E2 or 1 μM TAM and cultured for 24 hours in the same. Untreated cells cultured in serum free media acted as controls.

Another assay deals with TFF3. Kind of assay: TFF3 transcript levels (RT-PCR) in MCF7 cells treated with E2 or TAM. Particulars: 10 nM E2 or 1 μM TAM, 24 hours, FIG. 7A. The procedure: RT-PCR was performed in a final volume of […] containing 0.2 μg of mRNA template, 0.6 μM primers, […] of enzyme mix, 400 μM of each dNTP, 10 reaction buffer, and 10 Q-Solution by use of the Qiagen One-step RT-PCR kit. RNA template was reverse-transcribed into cDNA for 30 min at 50° C.; Hotstart TaqDNA polymerase was activated by heating for 15 min at 95° C.; the denatured cDNA templates were amplified by the following cycles: 94° C./30 s, 55° C./30 s, and 72° C./60 s. A final extension was performed for 10 min at 72° C. In order to compare the PCR products semiquantitatively, 15-40 cycles of PCR (annealing temperature 55° C.) were performed to determine the linearity of the PCR amplification, and the amplified β-actin cDNA served as an internal control for cDNA quantity and quality. All RNA samples were treated with DNase I to avoid genomic DNA contaminations.
as §2

The next assay relates to TFF1 promoter. Kind of assay: TFF1 promoter activity in MCF7 cells treated with E2 or TAM. The following applies: 24 hours treatment, FIG. 9B. The procedure:
as §3

In assay [1] the test system is MCF7-VECTOR and MCF7-TFF3 cells. The assay is described as follows: Total cell number assay in estrogen-depleted media with estrogen supplement. Particulars: estrogen supplemented to estrogen-depleted media, FIG. 10A. The procedure: as §1
In the next assay the test system is MCF-7-TamR cells. Kind of assay: Cell morphology assay, MCF-7-TamR cells. The following applies: single agent, 48 h, FIG. 19. The procedure: Tamoxifen resistant MCF-7-Tam^R cells were plated at a concentration of 5×10^3 cells/well in 96-well plates in 100 μl of phenol red free RPMI 1640 medium containing dextran coated charcoal stripped 10% FBS. The plates were incubated at 37° C. for 24 h to allow the cells to reattach and re-equilibrate. Without removing any medium, anti-TFF3 antibody and/or tamoxifen were then added at twice the final concentration in a volume of 100 μl of the culture media. After 48 h images of cells were taken at 10× magnification under phase contrast microscope (Olympus IX70).
Cells were plated in phenol red free RPMI 1640 medium containing dextran coated charcoal stripped 10% FBS at 5×10^3 cells/100 μl/well in 96-well plates. After 24 hours incubation, anti-TFF3 antibody and/or tamoxifen (TAM) were then added at twice the final concentration in a volume of 100 μl. The cells were then taken photos using Olympus phase contrast microscope under 10× magnification. CK-09 is the pre-immune sera for the rabbit polyclonal antibodies of human TFF3 (anti-09).

Another assay concerns CEACAM6 gene. The assay is described as follows: CEACAM6 luciferase reporter assay in MCF-7 cells. Particulars: MCF-7 co-transfected with expression plasmid, 36 hours post transfection.

As to `C[C@]12CC[C@@H]3c4ccc(O)cc4CC[C@H]3[C@@H]1CC[C@@H]2O` [E2, estradiol], the “soft agar colony numbers” value with MCF-TFF3 cells is recorded as “further increases the colony numbers significantly”. Further, the TFF3 promoter activity entry with TFF3 promoter is reported as “increase”. Further, the “transcript levels of TFF1” value in the assay with TFF1 is reported as “very significant increase”. Moreover, the “transcript levels of TFF3” value in the assay with TFF3 was “very high increased transcript levels”. Moreover, the TFF1 promoter activity entry with TFF1 promoter was “increase”. Besides, in assay [1], the total cell number result was “brings back the total cell number to the control cells”.

With `CC/C(=C(\c1ccccc1)c1ccc(OCCN(C)C)cc1)c1ccccc1` [TAM, tamoxifen], in the assay with TFF3 promoter, the TFF3 promoter activity result was “increase”. The “transcript levels of TFF1” value in the assay with TFF1 is reported as “very significant increase”. Moreover, the “transcript levels of TFF3” value in the assay with TFF3 was “significantly but not as high transcript levels”. The TFF1 promoter activity entry in the assay on TFF1 promoter is recorded as “increase”. For the same molecule, the “cell morphology / cell death” value in the assay with MCF-7-TamR cells is “look healthy and similar to untreated control”.

Regarding “TFF3: wild type human TFF3 expressed from plasmid in MCF-7 cells (EEYVGLSANQCAVPAKDRVDCGYPHVTPKECNNRGCCFDSRIPGVPWCFKPLQEAECTF)”, the “stimulation of CEACAM6 expression compared with control vector” value in the assay on CEACAM6 gene was “two fold”.
